In ChEMBL document CHEMBL1153498, “Aerobic oxidation of indolomorphinan without the 4,5-epoxy bridge and subsequent rearrangement of the oxidation product to spiroindolinonyl-C-normorphinan derivative” (Bioorg Med Chem, 2009):

What was measured:
[1] = molecular target: Kappa-type opioid receptor (Cavia porcellus, UniProt P41144); experiment: Displacement of […] from Hartley guinea pig kappa opioid receptor by liquid scintillation counter
Mu-type opioid receptor = Mu-type opioid receptor (Cavia porcellus, UniProt P97266); experiment: Displacement of [3H]DAMGO from Hartley guinea pig mu opioid receptor by liquid scintillation counter
[2] = Displacement of [3H]NTI from Hartley guinea pig delta opioid receptor by liquid scintillation counter; set-up: species or system Cavia porcellus

Kappa-type opioid receptor, sequence (P41144 whole entry): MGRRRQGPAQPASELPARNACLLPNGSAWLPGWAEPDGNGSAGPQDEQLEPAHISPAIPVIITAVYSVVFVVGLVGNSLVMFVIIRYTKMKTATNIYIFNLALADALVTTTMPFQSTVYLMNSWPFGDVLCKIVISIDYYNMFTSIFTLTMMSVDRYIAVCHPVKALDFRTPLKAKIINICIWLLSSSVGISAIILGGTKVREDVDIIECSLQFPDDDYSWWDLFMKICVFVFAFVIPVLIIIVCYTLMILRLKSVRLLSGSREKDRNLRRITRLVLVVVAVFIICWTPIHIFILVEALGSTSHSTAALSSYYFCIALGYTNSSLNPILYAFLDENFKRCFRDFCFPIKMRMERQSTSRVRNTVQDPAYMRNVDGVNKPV
Mu-type opioid receptor, sequence (P97266 whole entry): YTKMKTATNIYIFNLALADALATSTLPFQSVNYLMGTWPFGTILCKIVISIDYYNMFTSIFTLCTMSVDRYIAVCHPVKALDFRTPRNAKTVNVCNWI

Row | SMILES | Ki [1] [nM] | Ki (Mu-type opioid receptor) [nM] | Ki [2] [nM]
1 | O=C1c2ccccc2N[C@@]12C[C@]13CCN(CC4CC4)[C@H](Cc4ccc(O)cc41)[C@]3(O)C2 | 13.4 | 0.75 | 2.9
2 | CN1CC[C@]23c4c5ccc(O)c4O[C@H]2C(=O)C2(Cc4ccccc4C2)C[C@@]3(O)[C@H]1C5 [SPIROINDANYLOXYMORPHONE] |  |  | 1.4
